Measured values published in ChEMBL document CHEMBL5303304, “EUbOPEN Chemogenomics Library - IncuCyte” (2023).

Experiments:
Format in all cases: toxicity, cell-based
HEK-293T = assay: Incucyte cell viability with HEK293T; settings: human, 10 µM, compound concentration 10 uM
Fibroblast = assay: Incucyte cell viability with human fibroblast; settings: 10 µM, compound concentration 10 uM
U2OS = assay: Incucyte cell viability with U2OS; settings: human, 10 µM, compound concentration 10 uM
Also: unitless GR value; below 1 slowed growth and below 0 cell loss.

Structure (SMILES) | Growth Rate (HEK-293T; 6 h, replicate number 1) | Growth Rate (HEK-293T; 6 h, replicate number 2) | Growth Rate (HEK-293T; 12 h, replicate number 2) | Growth Rate (HEK-293T; 18 h, replicate number 1) | Growth Rate (HEK-293T; 18 h, replicate number 2) | Growth Rate (HEK-293T; 24 h, replicate number 1) | Growth Rate (HEK-293T; 24 h, replicate number 2) | Growth Rate (Fibroblast; 0 h, replicate number 1) | Growth Rate (Fibroblast; 6 h, replicate number 1) | Growth Rate (Fibroblast; 6 h, replicate number 2) | Growth Rate (Fibroblast; 12 h, replicate number 1) | Growth Rate (Fibroblast; 12 h, replicate number 2) | Growth Rate (Fibroblast; 18 h, replicate number 2) | Growth Rate (Fibroblast; 24 h, replicate number 1) | Growth Rate (Fibroblast; 24 h, replicate number 2) | Growth Rate (U2OS; 0 h, replicate number 2) | Growth Rate (U2OS; 6 h, replicate number 1) | Growth Rate (U2OS; 12 h, replicate number 1) | Growth Rate (U2OS; 18 h, replicate number 2) | Growth Rate (Fibroblast; 18 h, replicate number 1) | other results
O=C(Nc1ccc(-n2nc(C(F)(F)F)cc2C(F)(F)F)cc1)c1ccncc1F | -0.04 | -0.25 | 0.24 | 0.25 | 0.42 | 0.31 | 0.46 | -0.09 | 0.37 | -1 | -1 | 0.14 | 0.72 | 0.81 | 0.69 | -1 | -0.16 | 0.54 | 0.66 |  | Growth Rate (HEK-293T; 12 h, replicate number 1): 0.33; Growth Rate (U2OS; 6 h, replicate number 2): 0.41; Growth Rate (U2OS; 12 h, replicate number 2): 0.63; Growth Rate (U2OS; 18 h, replicate number 1): 0.8; Growth Rate (U2OS; 24 h, replicate number 1): 0.69; Growth Rate (U2OS; 24 h, replicate number 2): 0.77
O=C(NCc1cccnc1OCC(F)(F)F)c1cncc(-c2ccc(Cl)cc2)c1 | 0.82 |  |  | 0.84 |  | 0.81 |  |  |  | -1 |  | 0.57 | 0.96 | 0.21 |  | -0.65 | 0.44 | 0.98 |  | -0.38 | 
C[C@@H](NC(=O)Cc1ccc(C2CC2)cc1)c1ccc(OCC(F)(F)F)cn1 | 0.39 | 0.17 | 0.64 |  | 0.63 |  | 0.68 | -0.4 | 0.85 | -0.99 | -1 | 0.67 | 0.93 | 0.8 | 0.89 | -0.85 |  |  | 0.79 | -0.27 | Growth Rate (U2OS; 0 h, replicate number 1): -0.06; Growth Rate (U2OS; 6 h, replicate number 2): 0.67; Growth Rate (U2OS; 12 h, replicate number 2): 0.53; Growth Rate (U2OS; 24 h, replicate number 2): 0.87
CCCC(=O)C1CCN(c2ncnc3c2CN(C(=O)c2ccc(-c4ccccc4)cc2)CC3)CC1 | 0.24 | 0.35 | 0.75 |  | 0.82 |  | 0.74 |  | 0.84 | -1 |  | 0.73 | 0.93 |  | 0.9 |  | 0.51 | 0.92 |  | 0.74 | Growth Rate (U2OS; 18 h, replicate number 1): 0.81; Growth Rate (U2OS; 24 h, replicate number 1): 0.83
N#Cc1cccc(-c2nc(-c3cccnc3)no2)c1 | 0.4 | 0.1 | 0.6 |  | 0.95 |  |  | -0.49 |  | 0.7 | -0.97 | 0.88 | 0.55 | 0.19 | 0.92 | -0.52 |  | 0.67 | 1 | -0.08 | 
COc1ccccc1-n1nc(C2CC(C)(C)OC(C)(C)C2)cc1-c1ccc(Cl)cc1 | -0.05 | -0.13 | 0.41 | 0.79 | 0.54 | 0.95 | 0.64 | -0.49 |  | -1 |  | 0.99 | 0.87 |  |  | -0.66 |  | 0.85 | 0.96 | -0.27 | Growth Rate (HEK-293T; 12 h, replicate number 1): 0.46; Growth Rate (U2OS; 6 h, replicate number 2): 0.41; Growth Rate (U2OS; 12 h, replicate number 2): 0.93; Growth Rate (U2OS; 18 h, replicate number 1): 0.94; Growth Rate (U2OS; 24 h, replicate number 1): 0.94; Growth Rate (U2OS; 24 h, replicate number 2): 0.95
